The results in this text go back to patent publication US10030016B2 (Sunesis Pharmaceuticals, Inc., priority 2009, dated 2018).

One assay addresses PDK1 (Homo sapiens (Human), UniProt O15530). The experiment in a line: PDK1 kinase assay (coupled PDK1/AKT/FAM-crosstide assay, IMAP fluorescence polarization). It counts as biochemical. An outline of the steps: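 Inhibition is derived by 4-parameter fitting of ΔmP from an IMAP fluorescence polarization read of FAM-crosstide (100 nM) phosphorylation. The cascade ran 30 min at 25 °C with 40 μM ATP, using insect-cell GST-PDK1 51-359 (0.75 nM) driving 10 nM unphosphorylated AKT2 140-467-PIFtide fusion.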

In assay [1] the test system is phospho-akt (Thr308) in PC-3 cells. The experiment in a line: Inhibition of phospho-akt (Thr308) in PC-3 cells, MSD phospho-akt 308 ELISA kit. It counts as cell-based. As to conditions: Homo sapiens, 2 hours, no serum, read-out: EC50. A digest of the protocol:
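PC-3 cells (15,000/well, overnight in 10% FBS medium) treated 2 h with three-fold diluted compounds in serum-free medium; DMSO high and 5 μM wortmannin low controls. Lysates captured on BSA-blocked MSD plates overnight at 4 °C, then 1 h antibody detection at RT; phospho-Akt Thr308 read by MSD electrochemiluminescence.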
On the technique in general: An ELISA detects its analyte on a solid surface through an enzyme-linked reagent.

Setting [2] is: inhibition of P308 Akt in PC-3 cells using MSD.
The mark [3] stands for this setting: inhibition of phospo-PDK1 in vitro.
Where [4] appears, read: inhibition of P308 Akt in PC-3 cells, MSD.

Each structure is given as a SMILES string. Structures can show the parent of a compound that is named as a salt. Where two headings read alike, the source gives them in different places.

PDK1, sequence (O15530 51-359): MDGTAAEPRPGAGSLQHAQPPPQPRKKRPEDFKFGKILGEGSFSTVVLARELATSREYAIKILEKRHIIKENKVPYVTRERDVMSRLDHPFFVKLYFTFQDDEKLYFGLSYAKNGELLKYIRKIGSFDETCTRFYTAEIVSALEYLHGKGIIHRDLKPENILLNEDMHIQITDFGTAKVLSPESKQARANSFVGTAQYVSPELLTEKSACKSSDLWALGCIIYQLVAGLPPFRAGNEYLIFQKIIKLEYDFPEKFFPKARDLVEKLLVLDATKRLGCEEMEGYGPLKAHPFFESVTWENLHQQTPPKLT

With `CC(C)Oc1cc(CNc2ncccc2C(=O)NCc2ccc(F)c(F)c2)cc(-c2c[nH]c3ncc(-c4ccn[nH]4)cc23)c1` [Example 53, 2-(3-(5-(1H-pyrazol-5-yl)-1H-pyrrolo[2,3-b]pyridin-3-yl)-5-isopropoxybenzylamino)-N-(3,4-difluorobenzyl)nicotinamide], on PDK1 (inhibition of PDK1 in vitro), the IC50 (as a rule, the concentration that inhibits the measured activity by half) was less than 100 nM. For the same compound, in assay [1] (setting [2]), the EC50 – broadly, the midpoint of the concentration-response curve – lay in the range of 1000 to 10000 nM.
The matching figures for `C[C@H](NC(=O)c1cc(C#N)cnc1NCc1ccc(-c2cnc3[nH]nc(CCCN(C)C)c3c2)cc1)c1ccc(F)cc1` [Example 149, (S)-5-cyano-2-(4-(3-(3-(dimethylamino)propyl)-1H-pyrazolo[3,4-b]pyridin-5-yl)benzyl-amino)-N-(1-(4-fluorophenyl)ethyl) nicotinamide]: less than 100 nM and less than 1000 nM.
The matching figures for `Nc1n[nH]c2ncc(-c3ccc(CNc4ncc(C(F)(F)F)cc4C(=O)Nc4ccc(F)cn4)cc3)cc12` [Example 59, 2-(4-(3-amino-1H-pyrazolo[3,4-b]pyridin-5-yl)benzylamino)-N-(5-fluoropyridin-2-yl)-5-(trifluoromethyl)nicotinamide]: less than 100 nM and less than 1000 nM.
On PDK1 (setting [3]), `C[C@H](NC(=O)c1cccnc1NCc1ccc(-c2ccc3ncnc(N)c3c2)s1)c1ccc(F)cc1` [Example 3.15, 2-({[5-(4-aminoquinazolin-6-yl)thiophen-2-yl]methyl}amino)-N-[(1S)-1-(4-fluorophenyl)ethyl] pyridine-3-carboxamide] came in with an IC50 of 100 to 1000 nM. The EC50 in assay [1] (setting [4]) was less than 1000 nM.
Regarding `C[C@H](NC(=O)c1cc(C#N)cnc1NCc1ccc(-c2cnc(N)nc2)cc1)c1ccc(F)cc1` [Example 119, (S)-2-(4-(2-amino-pyrimidin-5-yl)benzylamino)-5-cyano-N-(1-(4-fluorophenyl)ethyl) nicotinamide], the IC50 against PDK1 (inhibition of PDK1 in vitro) is less than 100 nM. Further, the EC50 in assay [1] (setting [2]) is more than 10000 nM.
`O=C(NCc1ccc(F)c(F)c1)c1cccnc1NCc1ccc(-c2cnc3[nH]ncc3c2)cc1` [Example 2.35, 2-(4-(1H-pyrazolo[3,4-b]pyridin-5-yl)benzylamino)-N-(3,4-difluorobenzyl)nicotinamide] had an IC50 at PDK1 (setting [3]) of less than 100 nM. Besides, the EC50 in assay [1] (setting [4]) is less than 1000 nM.
`C[C@H](NC(=O)c1nc(C#N)cnc1NCc1ccc(-c2cnc3[nH]c(=O)[nH]c3c2)cc1)c1ccc(F)c(F)c1` [Example 363, (S)-6-cyano-N-(1-(3,4-difluorophenyl)ethyl)-3-(4-(2-oxo-2,3-dihydro-1H-imidazo[4,5-b]pyridin-6-yl)benzylamino)-pyrazine-2-carboxamide] came in with an IC50 against PDK1 (inhibition of PDK1 in vitro) of less than 100 nM. For the same compound, the EC50 in assay [1] (setting [2]) is less than 1000 nM.
In turn, `CNc1ncc2cc(O[C@H](C)CNc3ncc(C#N)cc3C(=O)N[C@@H](C)c3ccc(F)cc3)ccc2n1` [Example 251, 5-cyano-N-((S)-1-(4-fluorophenyl)ethyl)-2-((R)-2-(2-(methylamino)quinazolin-6-yloxy)propylamino)nicotinamide] gave an IC50 against PDK1 (inhibition of PDK1 in vitro) of more than 5000 nM. In addition, the EC50 in assay [1] (setting [2]) was 1000 to 10000 nM.
For the compound `CNC(=O)C[C@@H](Nc1ncc(C#N)cc1C(=O)N[C@@H](C)c1ccc(F)cc1)c1ccc(-c2c[nH]c3ncnc(N)c23)cc1` [Example 47, 2-((R)-1-(4-(4 - amino-7H-pyrrolo[2,3-d]pyrimidin-5-yl)phenyl)-3-(methylamino)-3-oxopropylamino)-5-cyano-N-((S)-1-(4-fluorophenyl)ethyl)nicotinamide], the IC50 against PDK1 (inhibition of PDK1 in vitro) was less than 100 nM. Also, the EC50 in assay [1] (setting [2]) was more than 10000 nM.
`Nc1n[nH]c2ncc(-c3ccc(CNc4ncc(C(F)(F)F)cc4-c4nc5cc(F)ccc5[nH]4)cc3)cc12` [Example 349, 5-(4-((3-(5-fluoro-1H-benzo[d]imidazol-2-yl)-5-(trifluoromethyl)pyridin-2-ylamino)methyl)phenyl)-1H-pyrazolo[3,4-b] pyridin-3-amine] had a half-inhibitory concentration (IC50) on PDK1 (inhibition of PDK1 in vitro) of more than 5000 nM. The EC50 in assay [1] (setting [2]) was more than 10000 nM.
The compound `Nc1ncnc2ccc(-c3ccc(CNc4ncccc4C(=O)NCc4ccc(F)c(F)c4F)s3)cc12` [Example 3.16, 2-({[5-(4-aminoquinazolin-6-yl)thiophen-2-yl]methyl}amino)-N-(2,3,4-trifluorobenzyl)pyridine-3-carboxamide (TFA salt)] yielded an IC50 against PDK1 (setting [3]) of less than 100 nM. Moreover, the EC50 in assay [1] (setting [4]) was in the range of 1000 to 10000 nM.
For the compound `CC(C)(N)CCc1nc(-c2ccc(CNc3ncc(C(F)(F)F)cc3C(=O)Nc3ccc(F)cc3)cc2)cnc1N` [Example 83, 2-{4-[5-Amino-6-(3-amino-3-methyl-butyl)-pyrazin-2-yl]-benzylamino}-N-(4-fluoro-phenyl)-5-trifluoro-methyl-nicotinamide], on PDK1 (inhibition of PDK1 in vitro), the IC50 is less than 100 nM. The EC50 in assay [1] (setting [2]) is less than 1000 nM.
For the compound `C[C@H](NC(=O)c1cc(C(F)(F)F)cnc1NCc1ccc(-c2cnc(N)cn2)cc1)c1ccc(F)c(F)c1` [Example 382, (S)-2-(4-(5-aminopyrazin-2-yl)benzylamino)-N-(1-(3,4-difluorophenyl)ethyl)-5-(trifluoromethyl)nicotinamide], the IC50 against PDK1 (inhibition of PDK1 in vitro) was less than 100 nM. Moreover, the EC50 in assay [1] (setting [2]) was less than 1000 nM.
In turn, `Nc1ncnc2ccc(-c3ccc(CNc4ncc(NS(=O)(=O)C(F)(F)F)cc4C(=O)NCc4ccc(F)c(F)c4)s3)cc12` [Example 8.6.3] returned an IC50 against PDK1 (setting [3]) of 100 to 1000 nM. Also, the 50% effective concentration (EC50) in assay [1] (setting [4]) was 1000 to 10000 nM.
`C[C@H](NC(=O)c1cccnc1NCc1ccc(-c2ccc3nccnc3c2)s1)c1ccc(F)c(F)c1` [Example 4.31]: the IC50 at PDK1 (setting [3]) is more than 5000 nM. The EC50 in assay [1] (setting [4]) is more than 10000 nM.
Consider `Nc1n[nH]c2ncc(-c3ccc(CNc4ncc(C(F)(F)F)cc4C(=O)NCc4ccc(F)c(Cl)c4)cc3)cc12` [Example 286], for which the IC50 against PDK1 (inhibition of PDK1 in vitro) was less than 100 nM. In addition, in assay [1] (setting [2]), the EC50 is less than 1000 nM.
With `O=C(NCc1ccc(F)c(F)c1)c1cccnc1NCc1ccc(-c2c[nH]c3ncccc23)s1` [Example 1.17, 2-(((5-(1H-pyrrolo[2,3-b]pyridin-3-yl)thiophen-2-yl)methyl)amino)-N-(3,4-difluorobenzyl)nicotinamide], the IC50 on PDK1 (setting [3]) is 100 to 1000 nM. Moreover, in assay [1] (PC-3, 2 h, inhibition of P308 Akt in PC-3 cells, MSD), the EC50 is more than 10000 nM.
At PDK1 (inhibition of PDK1 in vitro), `CNc1ncc2cc(C#CCNc3ncc(C#N)cc3C(=O)N[C@@H](C)c3ccc(F)cc3)ccc2n1` [Example 255, (S)-5-cyano-N-(1-(4-fluorophenyl)ethyl)-2-(3-(2-(methylamino)quinazolin-6-yl)prop-2-ynylamino)nicotinamide] registered an IC50 of less than 100 nM. For the same compound, the EC50 in assay [1] (setting [2]) is less than 1000 nM.
In the case of `CC(C)Oc1cc(CNc2ncccc2C(=O)N[C@@H](C)c2ccccc2)cc(-c2c[nH]c3ncc(C(=O)NC4CC4)cc23)c1` [Example 4.1.13, N-cyclopropyl-3-[3-{[(3-{[(1S)-1-phenylethyl]carbamoyl}pyridin-2-yl)amino]methyl}-5-(propan-2-yloxy)phenyl]-1H-pyrrolo[2,3-b] pyridine-5-carboxamide], the IC50 on PDK1 (setting [3]) is less than 100 nM. In assay [1] (setting [4]), the concentration for a half-maximal effect (EC50) is 1000 to 10000 nM.
Take `C[C@H](NC(=O)c1cc(C(F)(F)F)cnc1NCc1ccc(-c2cnc3[nH]nc(N)c3c2)cc1)c1ccc(Br)cc1` [Example 282, (S)-2-(4-(3-amino-1H-pyrazolo [3,4-b]pyridin-5-yl)benzylamino)-N-(1-(4-bromophenyl)ethyl)-5-(trifluoromethyl)nicotinamide]: at PDK1 (inhibition of PDK1 in vitro), the IC50 was less than 100 nM. For the same compound, the half-maximal effective concentration (EC50) in assay [1] (setting [2]) was in the range of 1000 to 10000 nM.
